Reference: ChEMBL document CHEMBL6153133, “Discovery of Diphenyl Ether Derivatives as Novel BKCa Channel Activators: Structure-Activity Relationship, Cryo-EM Complex Structures, and In Vivo Animal Studies” (J Med Chem, 2025)

Experiments:
[1] = target: T1, Calcium-activated potassium channel subunit alpha-1 (Homo sapiens, UniProt Q12791); assay: Activation of BKca channel (unknown origin) by patch-clamp method
[2] = target: T1, Calcium-activated potassium channel subunit alpha-1; assay: Activation of BKca channel (unknown origin) by cell-based fluorescence assay
[3] = tested on: Calcium-activated potassium channel subunit alpha-1 (Homo sapiens), Q12791 [UNDEFINED MUTATION]; assay: (§1) Activation of hyperactive human BKca channel G803D/N806K mutant transfected in human AD-293 cells assessed as maximum relative fluorescence value at 5 uM preincubated for 15 mins followed by Tl+ stimulus buffer addition and measured after 80 sec by Flexstation3 multimode microplate reader analysis relative to control; type: cell-based; details: time 980.0 sec
[4] = target: T1, Calcium-activated potassium channel subunit alpha-1; assay: Activation of human KCa1.1 by patch clamp method
[5] = target: T1, Calcium-activated potassium channel subunit alpha-1; assay: Activation of BKca channel (unknown origin) by cell based method
[6] = tested on: Calcium-activated potassium channel subunit alpha-1 (Homo sapiens), Q12791 [UNDEFINED MUTATION]; assay: as §1, with “assessed as fold change in maximum relative” for “assessed as maximum relative”, “reader analysis” for “reader analysis relative to control”; type: cell-based; details: filed as opener, time 980.0 sec
[7] = Ratio of drug concentration in male Dunkin Hartley guinea pig brain to plasma at 10 mg/kg, po measured after 1 hrs by LC-MS/MS analysis; type: ADME, organism-based, Cavia porcellus; details: read-out: BPR
[8] = Drug concentration in male Dunkin Hartley guinea pig brain at 10 mg/kg, po measured after 1 hrs by LC-MS/MS analysis; type: ADME, organism-based, Cavia porcellus; details: read-out: Ct
Cavia porcellus [9] = assay: Antitussive activity in citric acid-induced male Dunkin Hartley guinea pig cough model assessed as reduction in cough number at 20 mg/kg, po pretreated with compound for 4 hrs followed by citric acid administration and measured after 10 mins relative to control; type: functional; set-up: scale not given: the % may be the effect or the level left; details: time 250 min, 4.167 h
Cavia porcellus [10] = assay: Antitussive activity in citric acid-induced male Dunkin Hartley guinea pig cough model assessed as reduction in cough number pretreated orally with compound for 4 hrs followed by citric acid administration and measured after 10 mins; type: functional; details: 4.167 h, route po, time 250 min
[11] = Ratio of drug concentration in male Dunkin Hartley guinea pig lung to plasma at 10 mg/kg, po measured after 4 hrs by LC-MS/MS analysis; type: ADME, organism-based, Cavia porcellus
[12] = Drug concentration in male Dunkin Hartley guinea pig blood at 10 mg/kg, po measured after 4 hrs by LC-MS/MS analysis; type: ADME, organism-based, Cavia porcellus; details: read-out: Ct
[13] = Volume of distribution at steady state in male Dunkin Hartley guinea pig at 10 mg/kg, iv by LC-MS/MS analysis; type: ADME, organism-based, Cavia porcellus; details: in vivo, read-out: Vdss
Cavia porcellus [14] = assay: Antitussive activity in citric acid-induced male Dunkin Hartley guinea pig cough model assessed as reduction in cough number at 8 mg/kg, po pretreated with compound for 4 hrs followed by citric acid administration and measured after 10 mins relative to control; type: functional; set-up: scale not given: the % may be the effect or the level left; details: time 250 min, 4.167 h
[15] = Drug concentration in male Dunkin Hartley guinea pig blood at 10 mg/kg, po measured after 1 hrs by LC-MS/MS analysis; type: ADME, organism-based, Cavia porcellus; details: read-out: Ct
[16] = Half-life in male Dunkin Hartley guinea pig at 10 mg/kg, po by LC-MS/MS analysis; type: ADME, organism-based, Cavia porcellus; details: in vivo
[17] = Ratio of drug concentration in male Dunkin Hartley guinea pig brain to plasma at 10 mg/kg, po measured after 4 hrs by LC-MS/MS analysis; type: ADME, organism-based, Cavia porcellus; details: read-out: BPR
[18] = Cmax in male Dunkin Hartley guinea pig at 10 mg/kg, po by LC-MS/MS analysis; type: ADME, organism-based, Cavia porcellus; details: in vivo
[19] = Half-life in male Sprague-Dawley rat at 10 mg/kg, po by LC-MS/MS analysis; type: ADME, organism-based; details: in vivo
[20] = Aqueous solubility of compound in PBS at >50 mg/ml; type: physicochemical; details: buffer
Cavia porcellus [21] = assay: Antitussive activity in citric acid-induced male Dunkin Hartley guinea pig cough model assessed as reduction in cough number at 50 mg/kg, po pretreated with compound for 4 hrs followed by citric acid administration and measured after 10 mins relative to control; type: functional; set-up: scale not given: the % may be the effect or the level left; details: time 250 min, 4.167 h
[22] = Clearance in male Dunkin Hartley guinea pig at 10 mg/kg, iv by LC-MS/MS analysis; type: ADME, organism-based, Cavia porcellus; details: in vivo
Rattus norvegicus [23] = assay: Reversal of urinary incontinence in male spontaneous hypertensive rat model assessed as decrease in urine frequency at 100 mg/kg, po measured after 3 hrs relative to control; type: functional; set-up: scale not given: the % may be the effect or the level left
[24] = AUClast in male Sprague-Dawley rat at 10 mg/kg, po by LC-MS/MS analysis; type: ADME, organism-based; details: in vivo
[25] = AUClast in male Dunkin Hartley guinea pig at 10 mg/kg, iv by LC-MS/MS analysis; type: ADME, organism-based, Cavia porcellus; details: in vivo
[26] = Half-life in male Dunkin Hartley guinea pig at 10 mg/kg, iv by LC-MS/MS analysis; type: ADME, organism-based, Cavia porcellus; details: in vivo
[27] = Cmax in male Sprague-Dawley rat at 10 mg/kg, po by LC-MS/MS analysis; type: ADME, organism-based; details: in vivo
[28] = Tmax in male Dunkin Hartley guinea pig at 10 mg/kg, po by LC-MS/MS analysis; type: ADME, organism-based, Cavia porcellus; details: in vivo
Rattus norvegicus [29] = assay: Reversal of urinary incontinence in male spontaneous hypertensive rat model assessed as decrease in urine volume at 100 mg/kg, po measured after 3 hrs relative to control; type: functional; set-up: scale not given: the % may be the effect or the level left
[30] = Drug concentration in male Dunkin Hartley guinea pig brain at 10 mg/kg, po measured after 4 hrs by LC-MS/MS analysis; type: ADME, organism-based, Cavia porcellus; details: read-out: Ct
[31] = Toxicity in male spontaneous hypertensive rat model at 100 mg/kg, po; type: organism-based; details: in vivo
[32] = Ratio of drug concentration in male Dunkin Hartley guinea pig lung to plasma at 10 mg/kg, po measured after 1 hrs by LC-MS/MS analysis; type: ADME, organism-based, Cavia porcellus
[33] = AUClast in male Dunkin Hartley guinea pig at 10 mg/kg, po by LC-MS/MS analysis; type: ADME, organism-based, Cavia porcellus; details: in vivo
[34] = Oral bioavailability in male Dunkin Hartley guinea pig at 10 mg/kg by LC-MS/MS analysis; type: ADME, organism-based, Cavia porcellus; details: in vivo
[35] = Drug concentration in male Dunkin Hartley guinea pig lung at 10 mg/kg, po measured after 1 hrs by LC-MS/MS analysis; type: ADME, organism-based, Cavia porcellus; details: read-out: Ct
[36] = Drug concentration in male Dunkin Hartley guinea pig lung at 10 mg/kg, po measured after 4 hrs by LC-MS/MS analysis; type: ADME, organism-based, Cavia porcellus; details: read-out: Ct
[37] = Tmax in male Sprague-Dawley rat at 10 mg/kg, po by LC-MS/MS analysis; type: ADME, organism-based; details: in vivo
[38] = Aqueous solubility of compound in pure distilled water at >50 mg/ml; type: physicochemical; details: buffer
Urinary bladder = assay: Induction of relaxation in Sprague-Dawley rat urinary bladder strips assessed as reduction in contraction; type: functional, tissue-based
[39] = target: Calcium-activated potassium channel subunit alpha-1 (Homo sapiens, UniProt Q12791, G803D/N806K); assay: Activation of hyperactive human BKca channel G803D/N806K mutant transfected in human AD-293 cells incubated for 20 to 30 mins by Flexstation3 multimode microplate reader analysis; type: cell-based
[40] = target: T1, Calcium-activated potassium channel subunit alpha-1; assay: Activation of human BK ca channel expressed in CHO cells by whole cell patch clamp method; type: cell-based

Chain of Calcium-activated potassium channel subunit alpha-1 (Homo sapiens), Q12791 [UNDEFINED MUTATION] (Q12791 whole entry, looked up, stated change not applied): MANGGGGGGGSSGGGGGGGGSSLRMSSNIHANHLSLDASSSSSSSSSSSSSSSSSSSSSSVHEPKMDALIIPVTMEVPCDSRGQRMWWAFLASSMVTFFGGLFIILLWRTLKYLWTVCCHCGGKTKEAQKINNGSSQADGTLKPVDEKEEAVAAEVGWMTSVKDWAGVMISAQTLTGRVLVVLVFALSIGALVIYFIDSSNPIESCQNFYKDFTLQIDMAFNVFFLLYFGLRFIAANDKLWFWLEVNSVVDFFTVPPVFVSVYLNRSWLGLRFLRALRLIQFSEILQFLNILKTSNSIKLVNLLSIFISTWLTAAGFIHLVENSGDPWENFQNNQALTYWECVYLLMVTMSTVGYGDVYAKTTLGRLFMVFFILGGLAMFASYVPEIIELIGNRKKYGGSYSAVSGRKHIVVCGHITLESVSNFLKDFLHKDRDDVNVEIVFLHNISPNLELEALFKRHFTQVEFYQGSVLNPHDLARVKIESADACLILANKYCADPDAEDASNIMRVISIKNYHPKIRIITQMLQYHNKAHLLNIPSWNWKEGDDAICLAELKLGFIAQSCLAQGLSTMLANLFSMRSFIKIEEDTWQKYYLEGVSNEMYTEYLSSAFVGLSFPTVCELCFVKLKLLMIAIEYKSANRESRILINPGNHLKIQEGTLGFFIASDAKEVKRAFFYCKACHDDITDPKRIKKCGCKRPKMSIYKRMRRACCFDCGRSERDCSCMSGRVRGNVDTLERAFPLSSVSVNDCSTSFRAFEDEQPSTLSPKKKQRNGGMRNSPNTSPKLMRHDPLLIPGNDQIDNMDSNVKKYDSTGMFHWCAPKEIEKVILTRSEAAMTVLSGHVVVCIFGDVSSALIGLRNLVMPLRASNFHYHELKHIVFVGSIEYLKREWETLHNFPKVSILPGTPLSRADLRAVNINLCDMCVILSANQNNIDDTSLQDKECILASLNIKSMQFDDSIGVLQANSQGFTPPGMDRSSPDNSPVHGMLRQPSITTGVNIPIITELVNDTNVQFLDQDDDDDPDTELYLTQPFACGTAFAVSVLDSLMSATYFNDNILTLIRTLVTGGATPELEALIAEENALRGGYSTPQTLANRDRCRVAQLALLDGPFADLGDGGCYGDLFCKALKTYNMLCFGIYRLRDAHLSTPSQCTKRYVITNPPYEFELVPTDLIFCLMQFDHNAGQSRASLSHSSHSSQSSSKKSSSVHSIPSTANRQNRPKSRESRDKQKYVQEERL
T1 sequence (Q12791 whole entry): as the sequence (Q12791 whole entry, looked up, stated change not applied) above
Chain of Calcium-activated potassium channel subunit alpha-1 (Homo sapiens, UniProt Q12791, G803D/N806K) (Q12791 whole entry, looked up, stated change not applied): as above

O=c1[nH]c2cc(C(F)(F)F)ccc2n1-c1cc(C(F)(F)F)ccc1O
EC50 [1]: 10 µM

FC(F)(F)c1cc(NC(=S)Nc2ccc(Br)cc2-c2nnn[nH]2)cc(C(F)(F)F)c1
EC50 [2]: 7 µM | Activity [3]: 14.4% | EC50 [4]: 0.4 µM | EC50 [5]: 7 µM | fold change (FC) [6]: 2.3

Cl.Cl.Oc1cc(NCCCCCN2CCOCC2)ccc1Oc1c(F)c(F)c(C(F)(F)F)c(F)c1F
Kp at 1 h [7]: 15 | concentration at 1 h [8]: 424 ng/g | Activity (Cavia porcellus [9]): 54.4% | ED50 (Cavia porcellus [10]): 11.8 mg/kg | Kp at 4 h [11]: 587 | concentration at 4 h [12]: 23 ng/mL | Vd [13]: 18.1 L/kg | Activity (Cavia porcellus [14]): 25.4% | concentration at 1 h [15]: 28 ng/mL | half-life [16]: 4.7 h | Kp at 4 h [17]: 18 | Cmax [18]: 31.8 ng/mL | half-life [19]: 7.1 h | solubility [20]: soluble | Activity (Cavia porcellus [21]): 69.3% | clearance [22]: 93.3 mL/min/kg | Activity (Rattus norvegicus [23]): 61.4% | AUC(0-t) [24]: 844 ng·h/mL | AUC(0-t) [25]: 1800 ng·h/mL | half-life [26]: 4 h | Cmax [27]: 283 ng/mL | Tmax [28]: 1.8 h | Activity (Rattus norvegicus [29]): 62.6% | concentration at 4 h [30]: 414 ng/g | Activity [31]: Non-toxic | Kp at 1 h [32]: 291 | AUC(0-t) [33]: 188 ng·h/mL | bioavailability [34]: 10.5% | concentration at 1 h [35]: 8160 ng/g | concentration at 4 h [36]: 13500 ng/g | Tmax [37]: 0.4 h | solubility [38]: soluble

O=C(O)c1ccc(Cl)c2c1[nH]c1c3ccc(C(F)(F)F)cc3oc12
EC50 [2]: 5.4 µM | Activity [3]: 34.9% | EC50 (Urinary bladder): 2.5 µM | EC50 [5]: 5.4 µM

Oc1ccc(-c2onc(C(F)(F)F)c2-c2ccc(Cl)cc2)c(O)c1
EC50 [39]: 3.9 µM

CCc1oc2ccccc2c1C(=O)c1cc(Br)c(O)c(Br)c1 [BENZBROMARONE]
EC50 [40]: 111 µM
